Values of other authors as cited in US20050201943A1, “Magnetic resonance imaging using contrast agents bioactivated by enzymatic cleavage” (Epix Medical, Inc.,. a Delaware corporation, priority 2000, published 2005).
Residues, ends and D or L forms follow the SMILES beside them. *: point of attachment. Bz = O=C(c1ccccc1)*

How the values were obtained:
TAFI = target: T1, TAFI (Homo sapiens, UniProt Q96IY4); settings: other TAFI substrate, given for comparison
T1 sequence (Q96IY4 115-423): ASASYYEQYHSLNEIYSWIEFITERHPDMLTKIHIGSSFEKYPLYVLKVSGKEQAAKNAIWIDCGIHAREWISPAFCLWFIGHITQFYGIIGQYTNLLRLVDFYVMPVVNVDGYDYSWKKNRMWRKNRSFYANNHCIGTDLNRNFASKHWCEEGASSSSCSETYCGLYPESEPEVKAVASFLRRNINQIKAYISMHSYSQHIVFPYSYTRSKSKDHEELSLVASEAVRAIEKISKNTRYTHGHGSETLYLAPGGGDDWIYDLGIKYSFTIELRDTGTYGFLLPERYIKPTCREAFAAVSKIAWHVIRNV

[1] = target: human serum albumin (HSA) (Homo sapiens, UniProt P02768); settings: bound to HSA versus unbound in aqueous solution
Chain of human serum albumin (HSA) (P02768 25-609): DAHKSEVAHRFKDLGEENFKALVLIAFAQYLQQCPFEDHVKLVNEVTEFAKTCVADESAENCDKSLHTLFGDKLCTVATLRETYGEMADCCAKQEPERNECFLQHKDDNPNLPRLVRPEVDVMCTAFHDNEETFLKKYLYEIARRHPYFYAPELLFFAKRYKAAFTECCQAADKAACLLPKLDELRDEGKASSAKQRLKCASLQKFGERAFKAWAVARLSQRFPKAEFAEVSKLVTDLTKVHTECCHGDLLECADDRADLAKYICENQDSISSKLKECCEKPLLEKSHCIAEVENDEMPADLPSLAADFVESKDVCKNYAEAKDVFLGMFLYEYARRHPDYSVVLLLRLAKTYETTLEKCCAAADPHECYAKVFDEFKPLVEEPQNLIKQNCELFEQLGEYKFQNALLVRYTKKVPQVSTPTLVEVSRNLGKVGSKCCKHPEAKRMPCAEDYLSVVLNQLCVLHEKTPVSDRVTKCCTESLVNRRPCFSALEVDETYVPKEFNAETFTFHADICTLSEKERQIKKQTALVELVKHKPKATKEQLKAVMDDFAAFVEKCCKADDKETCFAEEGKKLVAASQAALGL

Row | Km (TAFI) | kcat (TAFI) | increase in relaxivity of the protein-bound form compared to the unbound contrast agent [1] | SMILES
1 | 140 µM | 21 s⁻¹ |  | N=C(N)NCCC[C@H](NC(=O)CNC(=O)c1ccccc1)C(=O)O [hippuryl arginine] (Bz-Gly-Arg-OH)
2 |  |  | seven to eight times | O=C([O-])CN(CCN(CC(=O)[O-])C[C@H](COP(=O)([O-])OC1CCC(c2ccccc2)(c2ccccc2)CC1)N(CC(=O)[O-])CC(=O)[O-])CC(=O)[O-].[Gd+3].[H+].[H+].[H+] [MS-325]
